Source: patent US20110053773A1, “METHODS OF IMPROVING NUTRITIONAL VALUE OF PLANTS” (UNIVERSITY OF TENNESSEE RESEARCH FOUNDATION, priority 2009, published 2011)

What was measured:
[1] = tested on: sweet corn cultivars 'Merit', 'Temptation', 'Incredible'; test: Visual leaf tissue bleaching of sweet corn (Example 3, Table 9); format: in vivo; details: mesotrione 105, atrazine 560 g ai/ha
Experimental: (§1) Studies were conducted in a field in Knoxville, Tenn. to ascertain the growth, stress tolerance and nutritional quality differences following postemergence applications of herbicides mesotrione and atrazine, alone and in mixtures together, on the young sweet corn cultivars: ‘Merit’ (yellow-kernel sensitive genotype), ‘Temptation’ (bicolor tolerant genotype), and ‘Incredible’ (yellow-kernel moderately sensitive genotype).
(§2) Herbicide treatments were applied as follows: 1) untreated control; 2) mesotrione (meso) at 105 g ai/ha EPOST; 3) mesotrione at 105+atrazine at 560 g ai/ha EPOST; 4) atrazine at 560 g ai/ha EPOST; 5) mesotrione at 105 g ai/ha LPOST; 6) mesotrione at 105+atrazine at 560 g ai/ha LPOST; and 7) atrazine at 560 g ai/ha LPOST. Visual ratings of plant growth were taken during season, and kernels for carotenoids were measured at harvest.

[2] = tested on: sweet corn cultivars 'Merit', 'Temptation', 'Incredible'; test: Kernel carotenoids of sweet corn after mesotrione and atrazine (Example 3); format: in vivo; parameters: Kernel carotenoids: Lutein / Kernel carotenoids: Zeaxanthin: unit not given here; details: mesotrione 105, atrazine 560 g ai/ha
Experimental: as §1, §2

[3] = tested on: sweet corn (Zea mays var. rugosa) cultivar 'Incredible'; test: Content analysis of sweet corn ears: crude protein, amino acids, detergent fiber, fatty acids, minerals (Example 1); format: in vivo; details: POST at b59 rates; every treatment incl. check also got atrazine 560 g ai/ha + COC 1% v/v; relative to treated check (atrazine), check=0
Description: Herbicide treatments were applied in a water carrier at 23 gallons of solution per acre on a field site near Knoxville, Tenn. and Painter, Va. Treatments include the following: 1) nicosulfuron at 35 g ai/ha (Accent); 2) mesotrione at 105 g ai/ha (Callisto); 3) nicosulfuron at 35 g ai/ha+mesotrione at 105 g ai/ha (Callisto+Accent); 4) tembotrione at 92 g ai/ha+isoxadifen-ethyl at 46 g ai/ha (Laudis); 5) topramezone at 15 g ai/ha (Impact); 6) nicosulfuron at 35 g ai/ha+isoxadifen-ethyl at 9 g ai/ha (Accent Q); 7) nicosulfuron at 35 g ai/ha+isoxadifen-ethyl at 9 g ai/ha+topramezone at 15 g ai/ha (Accent Q+Impact); 8) nicosulfuron 35 g ai/ha+isoxadifen-ethyl at 9 g ai/ha+mesotrione at 105 g ai/ha (Accent Q+Callisto); 9) treated check (atrazine or Aatrex). All treatments included a PRE application of atrazine plus metolachlor in order to maintain weed free conditions. In addition, all POST treatments (including the treated check) included atrazine at 560 g ai/ha and crop oil concentrate at 1% v/v. […] Sweet corn was harvested from the center two rows of each four row plot and weighed in the husk.

[4] = tested on: basil 'Genovese'; test: Visual injury of basil after insecticide, fungicide, PGRs, safeners (Example 4)
Experimental: (§3) Greenhouse and laboratory studies were conducted to ascertain the tolerance and nutritional quality differences following postemergence applications of the insecticide chlorpyrifos, the fungicide chlorothalonil, the PGRs mepiquat-chloride and paclobutrazol, and the safeners napthalic anhydride and isoxadifen-ethyl on kale ‘Red Russian’ and basil ‘Genovese’. Visual injury was rated based on general phytotoxicity, chlorosis, and visual stunting and each measurement was based on a percent scale from 0 to 100 where 0 equals no visual response and 100 equals complete plant death. Kale and basil were both harvested approximately 4 weeks after treatments and plants were pooled over replicates for content analysis of crude protein, crude amino acid content, acid detergent fiber, neutral detergent fiber, total fatty acids, and/or key mineral content (including Na, Ca, P, Mg, K, Fe, Mn, Zn, and Cu). In addition, the amounts of key individual amino acids (aspartic acid, threonine, glutamic acid, proline, glycine, cysteine, valine, leucine, isoleucine, methionine, and lysine) and composite classifications of fatty acid (saturated fatty acids, monounsaturated fatty acids, polyunsaturated fatty acids) were also analyzed from these sub-samples for kale (Tables 10-14).

[5] = tested on: basil ‘Genovese’; test: Yield, fresh weight of basil after insecticide, fungicide, PGRs and safeners (Example 4, Table 10); format: in vivo; details: DA-A, check 31.8
Experimental: as §3

[6] = tested on: basil 'Genovese'; test: Content analysis of basil: protein, minerals (Example 4, Tables 10-11); format: in vivo; details: 28 DA-A
Experimental: as §3

[7] = 'Incredible' moderately sensitive genotype, EPOST
[8] = 'Incredible' moderately sensitive genotype, LPOST
[9] = 'Merit' sensitive genotype, EPOST
[10] = 'Merit' sensitive genotype, LPOST
[11] = 7 DA-A, rates g ai/ha: chlropyrifos 1120, chlorothalonil 2630, paclobutrazol 3.23, mepiquat-chloride 12.3, Isoxadifen 8, Napthalic anhydride 264, + NIS 0.25 % v/v
[12] = 7 DA-A, rates g ai/ha: chlropyrifos 3370, chlorothalonil 7900, paclobutrazol 9.7, mepiquat-chloride 37, Isoxadifen 16, Napthalic anhydride 527, + NIS 0.25 % v/v
[13] = 14 DA-A, rates g ai/ha: chlropyrifos 1120, chlorothalonil 2630, paclobutrazol 3.23, mepiquat-chloride 12.3, Isoxadifen 8, Napthalic anhydride 264, + NIS 0.25 % v/v
[14] = 14 DA-A, rates g ai/ha: chlropyrifos 3370, chlorothalonil 7900, paclobutrazol 9.7, mepiquat-chloride 37, Isoxadifen 16, Napthalic anhydride 527, + NIS 0.25 % v/v
[15] = 28 DA-A, rates g ai/ha: chlropyrifos 1120, chlorothalonil 2630, paclobutrazol 3.23, mepiquat-chloride 12.3, Isoxadifen 8, Napthalic anhydride 264, + NIS 0.25 % v/v
[16] = 28 DA-A, rates g ai/ha: chlropyrifos 3370, chlorothalonil 7900, paclobutrazol 9.7, mepiquat-chloride 37, Isoxadifen 16, Napthalic anhydride 527, + NIS 0.25 % v/v
[17] = rates g ai/ha: chlropyrifos 1120, chlorothalonil 2630, paclobutrazol 3.23, mepiquat-chloride 12.3, Isoxadifen 8, Napthalic anhydride 264, + NIS 0.25 % v/v
[18] = rates g ai/ha: chlroprifos 3370, chlorothalonil 7900, paclobutrazol 9.7, mepiquat-chloride 37, Isoxadifen 16, Napthalic anhydride 527, + NIS 0.25 % v/v

CCNc1nc(Cl)nc(NC(C)C)n1 [Atrazine*AATREX, atrazine]
Leaf Tissue Visual Bleaching (%) ([1]; ‘Incredible’, 7 DAT, EPOST): 13%
Leaf Tissue Visual Bleaching (%) ([1]; ‘Incredible’, 7 DAT, LPOST): 0%
Leaf Tissue Visual Bleaching (%) ([1]; ‘Incredible’, 14 DAT, EPOST): 13%
Leaf Tissue Visual Bleaching (%) ([1]; ‘Incredible’, 14 DAT, LPOST): 0%
Leaf Tissue Visual Bleaching (%) ([1]; ‘Incredible’, 21 DAT, EPOST): 0%
Leaf Tissue Visual Bleaching (%) ([1]; ‘Incredible’, 21 DAT, LPOST): 0%
Leaf Tissue Visual Bleaching (%) ([1]; ‘Merit’, 7 DAT, EPOST): 3%
Leaf Tissue Visual Bleaching (%) ([1]; ‘Merit’, 7 DAT, LPOST): 0%
Leaf Tissue Visual Bleaching (%) ([1]; ‘Merit’, 14 DAT, EPOST): 2%
Leaf Tissue Visual Bleaching (%) ([1]; ‘Merit’, 14 DAT, LPOST): 0%
Leaf Tissue Visual Bleaching (%) ([1]; ‘Merit’, 21 DAT, EPOST): 0%
Leaf Tissue Visual Bleaching (%) ([1]; ‘Merit’, 21 DAT, LPOST): 0%
Lutein % change from untreated control [2, 7]: +7.6%
Zeaxanthin % change from untreated control [2, 7]: −0.0%
Kernel carotenoids: Lutein ([2]; 'Incredible' moderately sensitive genotype, EPOST, untreated 0.328): 0.353
Kernel carotenoids: Zeaxanthin ([2]; 'Incredible' moderately sensitive genotype, EPOST, untreated 0.448): 0.447
Lutein % change from untreated control [2, 8]: +6.0%
Zeaxanthin % change from untreated control [2, 8]: +1.3%
Kernel carotenoids: Lutein ([2]; 'Incredible' moderately sensitive genotype, LPOST, untreated 0.328): 0.347
Kernel carotenoids: Zeaxanthin ([2]; 'Incredible' moderately sensitive genotype, LPOST, untreated 0.448): 0.454
Kernel carotenoids: Lutein [2, 9]: 0.692
Lutein % change from untreated control [2, 9]: +9.5%
Zeaxanthin % change from untreated control [2, 9]: +10.8%
Kernel carotenoids: Zeaxanthin ([2]; 'Merit' sensitive genotype, EPOST, untreated 0.509): 0.564
Kernel carotenoids: Lutein [2, 10]: 0.664
Lutein % change from untreated control [2, 10]: +5.1%
Zeaxanthin % change from untreated control [2, 10]: +8.1%
Kernel carotenoids: Zeaxanthin ([2]; 'Merit' sensitive genotype, LPOST, untreated 0.509): 0.550
Acid DF [3]: 0 % of check
Alanine [3]: 0 % of check
Amino Acid [3]: 0 % of check
Aspartic ac [3]: 0 % of check
Cysteine [3]: 0 % of check
Glutamic ac [3]: 0 % of check
Glycine [3]: 0 % of check
Isoleucine [3]: 0 % of check
Leucine [3]: 0 % of check
Lysine [3]: 0 % of check
Methionine [3]: 0 % of check
Neutral DF [3]: 0 % of check
Proline [3]: 0 % of check
Protein [3]: 0 % of check
Threonine [3]: 0 % of check
Valine [3]: 0 % of check
calcium [3]: 0 % of check
copper [3]: 0 % of check
iron [3]: 0 % of check
magnesium [3]: 0 % of check
manganese [3]: 0 % of check
mon fattyac [3]: 0 % of check
phosphorous [3]: 0 % of check
polyfattyac [3]: 0 % of check
potassium [3]: 0 % of check
sat fattyac [3]: 0 % of check
sodium [3]: 0 % of check
tot fattyac [3]: 0 % of check
zinc [3]: 0 % of check

O=C1OC(=O)c2cccc3cccc1c23 [napthalic anhydride]
Phytotoxicity Chlorosis [4, 11]: 0%
Phytotoxicity General [4, 11]: 5%
Phytotoxicity Stunting [4, 11]: 0%
Phytotoxicity Chlorosis [4, 12]: 2%
Phytotoxicity General [4, 12]: 7%
Phytotoxicity Stunting [4, 12]: 5%
Phytotoxicity Chlorosis [4, 13]: 3%
Phytotoxicity General [4, 13]: 7%
Phytotoxicity Stunting [4, 13]: 0%
Phytotoxicity Chlorosis [4, 14]: 2%
Phytotoxicity General [4, 14]: 10%
Phytotoxicity Stunting [4, 14]: 7%
Phytotoxicity Chlorosis [4, 15]: 2%
Phytotoxicity General [4, 15]: 5%
Phytotoxicity Stunting [4, 15]: 0%
Phytotoxicity Chlorosis [4, 16]: 2%
Phytotoxicity General [4, 16]: 3%
Phytotoxicity Stunting [4, 16]: 7%
Yield Fresh weight [5, 17]: 41.5 grams
Yield Fresh weight ([5]; rates g ai/ha: chlropyrifos 3370, chlorothalonil 7900, paclobutrazol 9.7, mepiquat-chloride 37, Isoxadifen 16, Napthalic anhydride 527, + NIS 0.25 % v/v): 24.5 grams
ADF, Percent Increase Over the Untreated Check (on a % dry matter basis) [6, 18]: 4 % check
Calcium, Percent Increase Over the Untreated Check (on a % dry matter basis) [6, 18]: −8 % check
Copper, Percent Increase Over the Untreated Check (on a % dry matter basis) [6, 18]: −17 % check
Iron, Percent Increase Over the Untreated Check (on a % dry matter basis) [6, 18]: 0 % check
Magnesium, Percent Increase Over the Untreated Check (on a % dry matter basis) [6, 18]: −6 % check
Manganese, Percent Increase Over the Untreated Check (on a % dry matter basis) [6, 18]: −16 % check
NDF, Percent Increase Over the Untreated Check (on a % dry matter basis) [6, 18]: 1 % check
Phosphorous, Percent Increase Over the Untreated Check (on a % dry matter basis) [6, 18]: −9 % check
Potassium, Percent Increase Over the Untreated Check (on a % dry matter basis) [6, 18]: −23 % check
Protein, Percent Increase Over the Untreated Check (on a % dry matter basis) [6, 18]: 3 % check
Sodium, Percent Increase Over the Untreated Check (on a % dry matter basis) [6, 18]: −8 % check
Soluble protein, Percent Increase Over the Untreated Check (on a % dry matter basis) [6, 18]: 31 % check
Zinc, Percent Increase Over the Untreated Check (on a % dry matter basis) [6, 18]: −13 % check
ADF, Percent Increase Over the Untreated Check (on a % dry matter basis) [6, 17]: 13 % check
Calcium, Percent Increase Over the Untreated Check (on a % dry matter basis) [6, 17]: 2 % check
Copper, Percent Increase Over the Untreated Check (on a % dry matter basis) [6, 17]: 0 % check
Iron, Percent Increase Over the Untreated Check (on a % dry matter basis) [6, 17]: 14 % check
Magnesium, Percent Increase Over the Untreated Check (on a % dry matter basis) [6, 17]: 12 % check
Manganese, Percent Increase Over the Untreated Check (on a % dry matter basis) [6, 17]: 37 % check
NDF, Percent Increase Over the Untreated Check (on a % dry matter basis) [6, 17]: 2 % check
Phosphorous, Percent Increase Over the Untreated Check (on a % dry matter basis) [6, 17]: 22 % check
Potassium, Percent Increase Over the Untreated Check (on a % dry matter basis) [6, 17]: −4 % check
Protein, Percent Increase Over the Untreated Check (on a % dry matter basis) [6, 17]: 32 % check
Sodium, Percent Increase Over the Untreated Check (on a % dry matter basis) [6, 17]: 33 % check
Soluble protein, Percent Increase Over the Untreated Check (on a % dry matter basis) [6, 17]: 4 % check
Zinc, Percent Increase Over the Untreated Check (on a % dry matter basis) [6, 17]: 47 % check
